Measured values as given in patent US20090068290A1, “BIFEPRUNOX DOSES FOR TREATING SCHIZOPHRENIA” (priority 2006, published 2009).

How the values were obtained:
[1] = Body weight, Clinical Study Three
Text: To assess the safety and tolerability of bifeprunox using physical examination, weight, waist circumference, vital signs (pulse rate and systolic/diastolic blood pressure [BP], and oral temperature), 12-lead electrocardiogram (ECG), clinical laboratory assessments (hematology, biochemistry including fasting insulin level, fasting glucose, fasting lipid profile, urinalysis, special laboratory assessments for prolactin, IGF-1, IGFBP-3, and thyroid function), need for anticholinergic treatment during double-blind treatment period, concomitant medication use, adverse event (AE) monitoring, and assessments of abnormal movement including the Simpson-Angus Scale (SAS), Barnes Akathisia Scale (BAS), and Abnormal Involuntary Movement Scale (AIMS).

[2] = tested on: adult subjects with schizophrenia; assay: CGI responder rate, Clinical Study Three; type: in vivo, human; conditions: LOCF; for CGI Responder No, % / CGI Responder Yes, %: Week 6/Endpoint
Text: CLINICAL STUDY THREE: A CGI responder is defined as a subject who is categorized as “very much improved” or “much improved” on the CGI Improvement scale. […] No notable differences were observed between the placebo group and either of the two bifeprunox dose groups.

[3] = tested on: adult subjects with schizophrenia; assay: CGI responder rate, Clinical Study Two; type: in vivo, human; conditions: LOCF
Method: Notable differences were also observed between the 30 mg bifeprunox group and placebo for the change from baseline to endpoint in PANSS general psychopathology subscale score, BPRS total score, BPRS psychosis cluster score, PANSS responder rate, and CGI-I responder rate. In the study, a PANSS responder refers to a subject whose PANSS total score decreased by 20% or more from baseline to endpoint. A CGI-I responder refers to a subject who was categorized as “very much improved” or “much improved” in the CGI Global Improvement scale at endpoint.
Pharmacokinetic (PK) data of bifeprunox in schizophrenic subjects were also assessed and are presented in a separate report (combined with data from study S1543003).
(§1) Subjects who completed this study had the option to continue in the long-term. […] Risperidone-treated subjects were titrated from 2 mg to 6 mg daily over a three-day period and were subsequently maintained at 6 mg/day for the remainder of the treatment period. […] Blood samples were also obtained at Screening/Baseline, Week 3, and Week 6 for clinical laboratory assessments.
CLINICAL STUDY TWO: A CGI responder is defined as a subject who is categorized as “very much improved” or “much improved” on the CGI Improvement scale. […] A notable difference between the 30 mg bifeprunox group and placebo was seen (p=0.039).

[4] = tested on: adult subjects with schizophrenia; assay: BPRS psychosis cluster score, Clinical Study Three; type: in vivo, human; conditions: for Change from Baseline in BPRS Psychosis Cluster Score, Mean (SD) / Change from Baseline in BPRS Psychosis Cluster Score, Median / Change from Baseline in BPRS Psychosis Cluster Score, Trt Effect (bifeprunox—placebo) / mean change (SD) from Baseline to Endpoint in BPRS psychosis cluster score: LOCF; for Change from Baseline in BPRS Psychosis Cluster Score, Mean (SD) / Change from Baseline in BPRS Psychosis Cluster Score, Median / Change from Baseline in BPRS Psychosis Cluster Score, Trt Effect (bifeprunox—placebo): ITT population; for BPRS psychosis cluster score, treatment effect (bifeprunox—placebo): Endpoint LOCF; for mean change (SD) from Baseline to Endpoint in BPRS psychosis cluster score: ITT
Text: SECONDARY OBJECTIVES To assess the efficacy of bifeprunox in treating schizophrenia using the Positive Symptom sub-scale score of the PANSS, the Negative Symptom sub-scale score of the PANSS, the General Psychopathology sub-scale of the PANSS, Brief Psychiatric Rating Scale (BPRS) total score derived from the PANSS, BPRS psychosis score derived from the PANSS, the Clinical Global Impression Severity of Illness score (CGI-S), the Clinical Global Impression Improvement score (CGI-I), CGI-I responder rate, PANSS responder rate based on the PANSS total score, Calgary Depression Scale for Schizophrenia (CDSS), and Subject Satisfaction rating.
There were four treatment arms in this study, approximately 144 subjects per arm. […] After completing the Single-Blind Placebo Lead-in Period of at least three days, bifeprunox-treated subjects were titrated from 0.25 mg up to 20 mg/day or 30 mg/day according to a standardized titration scheme over a seven- or eight-day period, respectively. When the assigned dose was reached, subjects were maintained at that dose for the remainder of the six week treatment period. […] Subjects were hospitalized (if not already inpatients) after eligibility for study entry was verified, starting from the Screening Visit until at least 10 days after Baseline. Subjects could be hospitalized longer than 10 days if considered medically necessary by the Investigator. Rating scale assessments for efficacy and abnormal movement disorders were done weekly except for Week 5. […] Subject satisfaction with study medication was assessed at Week 6.

[5] = tested on: adult subjects with schizophrenia; assay: CGI responder rate, Clinical Study One; type: in vivo, human
Method: There were five treatment groups in this study. […] Study medication was administered once daily. After Baseline measurements were performed, the titration phase was begun. Bifeprunox treated subjects were titrated up to 5 mg, 10 mg or 20 mg according to a standardized titration schedule (Day 1: 0.125 mg, Day 2: 0.25 mg, Day 3: 0.5 mg, Day 4: 1.0 mg, Day 5: 2.0 mg, Day 6: 5.0 mg, Day 7: 10.0 mg, Day 8: 20 mg). When the assigned dose was reached, subjects were maintained at that dose for the remainder of the six-week treatment period.
CLINICAL STUDY ONE: A CGI responder is defined as a subject who is categorized as “very much improved” or “much improved” on the CGI Improvement scale.

[6] = tested on: adult subjects with schizophrenia; assay: CGI Improvement score, Clinical Study Two; type: in vivo, human; conditions: LOCF
Method: Rating scale assessments were performed weekly, except for week 5, to measure the change from baseline to endpoint of the PANSS total score. Other assessments included: PANSS positive symptom subscale score, PANSS negative symptom subscale score, PANSS general pschopathology subscale score, BPRS total score, BPRS psychosis score, the CGI-S score, the CGI-I score, responder rates based on the PANSS total score, and the Calgary Depression Scale for Schizophrenia (CDSS). […]
as §1

[7] = Bifeprunox 20 mg, Week 6/Endpoint
[8] = Bifeprunox 30 mg, Week 6/Endpoint

## O=c1[nH]c2cccc(N3CCN(Cc4cccc(-c5ccccc5)c4)CC3)c2o1 [Bifeprunox, 7-[4-([1,1′-biphenyl]-3-ylmethyl)-1-piperazinyl]-2(3H)-benzoxazolone]
[1]; Bifeprunox 30 mg
  Weight, Baseline Mean of subjects with Endpoint change: 179.7 lbs
  Weight, Baseline Mean of subjects with Week 6 change: 172.6 lbs
  Weight, Baseline, Max: 358 lbs
  Weight, Baseline, Mean (SD): 179.1 (62.4) lbs
  Weight, Baseline, Median: 171 lbs
  Weight, Baseline, Min: 77 lbs
  Weight, Change from Baseline at Endpoint, Max: 39 lbs
  Weight, Change from Baseline at Endpoint, Mean (SD): −1.1 (7.4) lbs
  Weight, Change from Baseline at Endpoint, Median: 0 lbs
  Weight, Change from Baseline at Endpoint, Min: −22 lbs
  Weight, Change from Baseline at Week 6, Max: 39 lbs
  Weight, Change from Baseline at Week 6, Mean (SD): −1.0 (8.9) lbs
  Weight, Change from Baseline at Week 6, Median: −2 lbs
  Weight, Change from Baseline at Week 6, Min: −18 lbs
  incidence of markedly abnormal (≧7%) decrease in body weight: 5%
  incidence of markedly abnormal (≧7%) increase in body weight: 5%
  mean weight change at Endpoint: −1.1 lbs
[1]; bifeprunox 20 mg
  Weight, Baseline Mean of subjects with Endpoint change: 178.8 lbs
  Weight, Baseline Mean of subjects with Week 6 change: 171.9 lbs
  Weight, Baseline, Max: 393 lbs
  Weight, Baseline, Mean (SD): 180.6 (61.7) lbs
  Weight, Baseline, Median: 176 lbs
  Weight, Baseline, Min: 77 lbs
  Weight, Change from Baseline at Endpoint, Max: 26 lbs
  Weight, Change from Baseline at Endpoint, Mean (SD): −2.3 (7.3) lbs
  Weight, Change from Baseline at Endpoint, Median: −1 lbs
  Weight, Change from Baseline at Endpoint, Min: −34 lbs
  Weight, Change from Baseline at Week 6, Max: 26 lbs
  Weight, Change from Baseline at Week 6, Mean (SD): −3.3 (8.2) lbs
  Weight, Change from Baseline at Week 6, Median: −1 lbs
  Weight, Change from Baseline at Week 6, Min: −34 lbs
  incidence of markedly abnormal (≧7%) decrease in body weight: 6%
  incidence of markedly abnormal (≧7%) increase in body weight: 1%
  mean weight change at Endpoint: −2.3 lbs
[1]; bifeprunox 20, 30 mg, 6 weeks
  mean body weight (in words): Small decreases in mean body weight
[2]; 20 mg
  CGI Responder No, %: 62%
  CGI Responder Yes, %: 38%
[2]; 30 mg
  CGI Responder No, %: 66%
  CGI Responder Yes, %: 34%
[2]; bifeprunox 20 mg
  CGI-I responder rate (subjects much or very much improved) at Endpoint: 38%
[2]; bifeprunox 30 mg
  CGI-I responder rate (subjects much or very much improved) at Endpoint: 34%
[3]; 30 mg
  CGI Responder at Endpoint No, %: 64%
  CGI Responder at Endpoint Yes, %: 36%
[3]; 40 mg
  CGI Responder at Endpoint No, %: 72%
  CGI Responder at Endpoint Yes, %: 28%
[3]; bifeprunox 30 mg
  CGI-I responder rate (subjects much or very much improved) at Endpoint: 36%
[3]; bifeprunox 40 mg
  CGI-I responder rate (subjects much or very much improved) at Endpoint: 28%
[4]; Bifeprunox 20 mg, Week 1
  Change from Baseline in BPRS Psychosis Cluster Score, Mean (SD): −1.4 (2.3)
  Change from Baseline in BPRS Psychosis Cluster Score, Median: −1
[4]; Bifeprunox 20 mg, Week 2
  Change from Baseline in BPRS Psychosis Cluster Score, Mean (SD): −2.1 (2.9)
  Change from Baseline in BPRS Psychosis Cluster Score, Median: −2
[4]; Bifeprunox 20 mg, Week 3
  Change from Baseline in BPRS Psychosis Cluster Score, Mean (SD): −2.6 (3.4)
  Change from Baseline in BPRS Psychosis Cluster Score, Median: −3
[4]; Bifeprunox 20 mg, Week 4
  Change from Baseline in BPRS Psychosis Cluster Score, Median: −3
[4]; [7]
  Change from Baseline in BPRS Psychosis Cluster Score, Mean (SD): −3.1 (3.9)
  Change from Baseline in BPRS Psychosis Cluster Score, Median: −3
  Change from Baseline in BPRS Psychosis Cluster Score, Trt Effect (bifeprunox—placebo): −0.6
[4]; Bifeprunox 30 mg, Week 1
  Change from Baseline in BPRS Psychosis Cluster Score, Mean (SD): −1.7 (2.5)
  Change from Baseline in BPRS Psychosis Cluster Score, Median: −2
[4]; Bifeprunox 30 mg, Week 2
  Change from Baseline in BPRS Psychosis Cluster Score, Mean (SD): −2.3 (3.3)
  Change from Baseline in BPRS Psychosis Cluster Score, Median: −2
[4]; Bifeprunox 30 mg, Week 3
  Change from Baseline in BPRS Psychosis Cluster Score, Mean (SD): −2.7 (3.8)
  Change from Baseline in BPRS Psychosis Cluster Score, Median: −3
[4]; Bifeprunox 30 mg, Week 4
  Change from Baseline in BPRS Psychosis Cluster Score, Mean (SD): −3.0 (4.0)
  Change from Baseline in BPRS Psychosis Cluster Score, Median: −3
[4]; [8]
  Change from Baseline in BPRS Psychosis Cluster Score, Mean (SD): −3.2 (4.4)
  Change from Baseline in BPRS Psychosis Cluster Score, Median: −3
  Change from Baseline in BPRS Psychosis Cluster Score, Trt Effect (bifeprunox—placebo): −0.5
[4]; bifeprunox 20 mg
  BPRS psychosis cluster score, treatment effect (bifeprunox—placebo): −0.6
  mean change (SD) from Baseline to Endpoint in BPRS psychosis cluster score: −3.1 (3-9)
[4]; bifeprunox 30 mg
  BPRS psychosis cluster score, treatment effect (bifeprunox—placebo): −0.5
  mean change (SD) from Baseline to Endpoint in BPRS psychosis cluster score: −3.2 (4.4)
[5]; 5 mg
  CGI Responder at Endpoint (LOCF), %: 33%
[5]; 10 mg
  CGI Responder at Endpoint (LOCF), %: 19%
[5]; 20 mg
  CGI Responder at Endpoint (LOCF), %: 25%
[6]; 30 mg, Week 2
  CGI Improvement Minimally Improved, %: (33%)
  CGI Improvement Minimally Worse, %: (8%)
  CGI Improvement Much Improved, %: (29%)
  CGI Improvement Much Worse, %: (3%)
  CGI Improvement No Change, %: (24%)
  CGI Improvement Very Much Improved, %: (3%)
  CGI Improvement Very Much Worse, %: (<1%)
[6]; 30 mg, Week 3
  CGI Improvement Minimally Improved, %: (28%)
  CGI Improvement Minimally Worse, %: (7%)
  CGI Improvement Much Improved, %: (27%)
  CGI Improvement Much Worse, %: (4%)
  CGI Improvement No Change, %: (26%)
  CGI Improvement Very Much Improved, %: (6%)
  CGI Improvement Very Much Worse, %: (<1%)
[6]; 30 mg, Week 4
  CGI Improvement Minimally Improved, %: (26%)
  CGI Improvement Minimally Worse, %: (9%)
  CGI Improvement Much Improved, %: (26%)
  CGI Improvement Much Worse, %: (4%)
  CGI Improvement No Change, %: (24%)
  CGI Improvement Very Much Improved, %: (9%)
  CGI Improvement Very Much Worse, %: (<1%)
[6]; 30 mg, Week 6/Endpoint
  CGI Improvement Minimally Improved, %: (21%)
  CGI Improvement Minimally Worse, %: (11%)
  CGI Improvement Much Improved, %: (28%)
  CGI Improvement Much Worse, %: (6%)
  CGI Improvement No Change, %: (24%)
  CGI Improvement Very Much Improved, %: (9%)
  CGI Improvement Very Much Worse, %: (<1%)
[6]; 40 mg, Week 2
  CGI Improvement Minimally Improved, %: (37%)
  CGI Improvement Minimally Worse, %: (7%)
  CGI Improvement Much Improved, %: (19%)
  CGI Improvement Much Worse, %: (11%)
  CGI Improvement No Change, %: (22%)
  CGI Improvement Very Much Improved, %: (4%.)
[6]; 40 mg, Week 3
  CGI Improvement Minimally Improved, %: (30%)
  CGI Improvement Minimally Worse, %: (6%)
  CGI Improvement Much Improved, %: (21%)
  CGI Improvement Much Worse, %: (14%)
  CGI Improvement No Change, %: (23%)
  CGI Improvement Very Much Improved, %: (5%)
[6]; 40 mg, Week 4
  CGI Improvement Minimally Improved, %: (29%)
  CGI Improvement Minimally Worse, %: (9%)
  CGI Improvement Much Improved, %: (20%)
  CGI Improvement Much Worse, %: (14%)
  CGI Improvement No Change, %: (21%)
  CGI Improvement Very Much Improved, %: (7%)
[6]; 40 mg, Week 6/Endpoint
  CGI Improvement Minimally Improved, %: (26%)
  CGI Improvement Minimally Worse, %: (11%)
  CGI Improvement Much Improved, %: (19%)
  CGI Improvement Much Worse, %: (15%)
  CGI Improvement No Change, %: (20%)
  CGI Improvement Very Much Improved, %: (9%)
